Each block holds one compound with its values, some of them ahead of it.
Assays:
Felis catus [1] = organism: Felis catus; assay: [Ca2+] antagonistic activity on [Ca2+] current in cat papillary.; type: functional, Papillary muscle
Felis catus [2] = organism: Felis catus; assay: [Ca2+] antagonistic activity on [Ca2+] current in cat ventricular trabeculae; type: functional
Cavia porcellus [3] = organism: Cavia porcellus; assay: Antagonistic activity against K+ induced responses in guinea pig ileum.; type: functional; settings: read-out: ID50 (the source's name)
Cavia porcellus [4] = organism: Cavia porcellus; assay: [Ca2+] antagonistic activity on contraction in guinea pig atria.; type: functional; settings: read-out: ID50 (the source's name)
Cavia porcellus [5] = organism: Cavia porcellus; assay: Antagonistic activity against ACh in guinea pig ileum.; type: functional; settings: read-out: ID50 (the source's name)
Oryctolagus cuniculus [6] = organism: Oryctolagus cuniculus; assay: Inhibition of [Ca2+] uptake in rabbit aorta, K+.; type: functional; settings: read-out: ID50 (the source's name)
Oryctolagus cuniculus [7] = organism: Oryctolagus cuniculus; assay: Inhibition of contraction in rabbit aorta, K+.; type: functional; settings: read-out: ID50 (the source's name)
[8] = Dissociation constant for high affinity binding sites in intact cultured cardiac cells
[9] = Dissociation constant for low affinity binding sites in intact cultured cardiac cells
Cavia porcellus [10] = organism: Cavia porcellus; assay: [Ca2+] antagonistic activity on [Ca2+] current in guinea pig single ventricular cells; type: functional; settings: read-out: ID50 (the source's name)
PC-12 = assay: Ability to block depolarization induced 45Ca uptake into pheochromocytoma PC12 cells; type: functional, cell-based; settings: Rattus norvegicus
Rattus norvegicus [11] = organism: Rattus norvegicus; assay: Effective concentration for negative inotropic effect; type: functional, organism-based
[12] = Dissociation constant for binding to isolated membranes from clonal cell line
Rattus norvegicus [13] = organism: Rattus norvegicus; assay: Inhibition of [Ca2+] uptake in rat aorta, K+.; settings: read-out: ID50
Rattus norvegicus [14] = organism: Rattus norvegicus; assay: Inhibition of contraction in rat aorta, K+.; settings: read-out: ID50
Canis familiaris [15] = organism: Canis familiaris; assay: Antagonistic activity against norepinephrine induced contraction in canine coronary; type: functional, Canis lupus familiaris
Canis familiaris [16] = organism: Canis familiaris; assay: Antagonistic activity against K+ induced responses in canine coronary.; type: functional, Canis lupus familiaris
Oryctolagus cuniculus [17] = organism: Oryctolagus cuniculus; assay: Antagonistic activity against 5-HT in rabbit saphenous; type: functional, Saphenous vein
Oryctolagus cuniculus [18] = organism: Oryctolagus cuniculus; assay: Antagonistic activity against 5-HT induced responses in rabbit basilar; type: functional
Oryctolagus cuniculus [19] = organism: Oryctolagus cuniculus; assay: Antagonistic activity against K+ induced responses in rabbit basilar.; type: functional
Oryctolagus cuniculus [20] = organism: Oryctolagus cuniculus; assay: Antagonistic activity against K+ induced responses in rabbit saphenous; type: functional, Saphenous vein
Canis familiaris [21] = organism: Canis familiaris; assay: Antagonistic activity against ACh induced responses in canine trachea; type: functional; settings: Canis lupus familiaris, read-out: ID50 (the source's name)
Canis familiaris [22] = organism: Canis familiaris; assay: Antagonistic activity against K+ induced responses in canine trachea.; type: functional; settings: Canis lupus familiaris, read-out: ID50 (the source's name)
Oryctolagus cuniculus [23] = organism: Oryctolagus cuniculus; assay: Inhibition of [Ca2+] uptake in rabbit pulmonary artery, K+.; type: functional; settings: read-out: ID50 (the source's name)
Oryctolagus cuniculus [24] = organism: Oryctolagus cuniculus; assay: Inhibition of contraction in rabbit pulmonary artery, K+.; type: functional; settings: read-out: ID50 (the source's name)
Oryctolagus cuniculus [25] = organism: Oryctolagus cuniculus; assay: Antagonistic activity against K+ induced responses in rabbit aorta; type: functional; settings: read-out: ID50 (the source's name)
Oryctolagus cuniculus [26] = organism: Oryctolagus cuniculus; assay: Antagonistic activity against norepinephrine (NE) induced responses in rabbit aorta; type: functional; settings: read-out: ID50 (the source's name)

SMILES: COC(=O)C1=C(C)NC(C)=C(C(=O)OC)C1c1ccccc1[N+](=O)[O-] [NIFEDIPINE]
ID50 (Felis catus [1]): 0.6 µM | ID50 (Felis catus [2]): 0.6 µM | IC50 (Cavia porcellus [3]): 0.003 µM | IC50 (Cavia porcellus [4]): 1 µM | IC50 (Cavia porcellus [5]): 0.005 µM

SMILES: COc1ccc([C@@H]2Sc3ccccc3N(CCN(C)C)C(=O)[C@@H]2OC(C)=O)cc1 [DILTIAZEM]
IC50 (Oryctolagus cuniculus [6]): 0.3 µM | IC50 (Oryctolagus cuniculus [7]): 0.5 µM

SMILES: Fc1ccc(C(c2ccc(F)cc2)N2CCN(C/C=C/c3ccccc3)CC2)cc1 [FLUNARIZINE]
IC50 (Rattus norvegicus [13]): 0.18 µM | IC50 (Rattus norvegicus [14]): 0.22 µM

SMILES: COCCOC(=O)C1=C(C)NC(C)=C(C(=O)OC(C)C)C1c1cccc([N+](=O)[O-])c1 (stereo not given) [NIMODIPINE]
ID50 (Oryctolagus cuniculus [17]): >0.0001 M | ID50 (Oryctolagus cuniculus [18]): 0.0007 µM | ID50 (Oryctolagus cuniculus [19]): 0.0002 µM | ID50 (Oryctolagus cuniculus [20]): 0.0003 µM

Now from value to compound, other results behind:

IC50 (Cavia porcellus [10]): 0.2 µM | IC50 (PC-12): 0.01 µM | EC50 (Rattus norvegicus [11]): 0.028 µM
SMILES: CCOC(=O)C1=C(C)NC(C)=C(C(=O)OC)C1c1cccc([N+](=O)[O-])c1 (stereo not given) [NITRENDIPINE]
Kd [8]: 0.00026 µM | Kd [9]: 0.016 µM | Kd [12]: 0.01 µM

IC50 (Cavia porcellus [4]): < 1 µM | IC50 (Oryctolagus cuniculus [6]): 0.15 µM | IC50 (Oryctolagus cuniculus [7]): 0.2 µM
SMILES: COc1ccc(CCN(C)CCCC(C#N)(c2cc(OC)c(OC)c(OC)c2)C(C)C)cc1OC (stereo not given) [GALLOPAMIL]
ID50 (Canis familiaris [15]): 0.5 µM | ID50 (Canis familiaris [16]): 0.2 µM

IC50 (Canis familiaris [21]): > 1000 µM | IC50 (Canis familiaris [22]): < 1000 µM | IC50 (Oryctolagus cuniculus [6]): 0.0068 µM | IC50 (Oryctolagus cuniculus [23]): 0.3 µM | IC50 (Oryctolagus cuniculus [7]): 0.17 µM | IC50 (Oryctolagus cuniculus [24]): 0.4 µM | IC50 (Oryctolagus cuniculus [25]): 0.03 µM | IC50 (Oryctolagus cuniculus [26]): 100 µM
SMILES: COc1ccc(CCN(C)CCCC(C#N)(c2ccc(OC)c(OC)c2)C(C)C)cc1OC (stereo not given) [VERAPAMIL]
ID50 (Felis catus [2]): <10 µM

IC50 (Oryctolagus cuniculus [6]): 0.001 µM | IC50 (Oryctolagus cuniculus [7]): 0.0019 µM
SMILES: COC(=O)C1=C(C)NC(C)=C(C(=O)OCCN(C)Cc2ccccc2)C1c1cccc([N+](=O)[O-])c1 (stereo not given) [NICARDIPINE]

From ChEMBL document CHEMBL1122223, “New developments in Ca2+ channel antagonists” (J Med Chem, 1983)
